Test results as given in patent US20240238218A1, “[…] A […] ACTIVE COMPOUND AND METHOD OF PREPARATION THEREOF” (GW Research Limited, priority 2021, published 2024).

Assays:
RjOrl: Swiss mice = experiment: Mouse 6 Hz (44 mA) psychomotor seizure test; format: in vivo; settings: for Forelimb clonus (mean ± s.e.m.): score 0-2
Source text: The 6 Hz Psychomotor Test, which detects anticonvulsant activity, follows that described by Brown et al. (J. Pharmacol. Exp. Ther. 107, 273-283, 1953).
Male RjOrl: Swiss mice, 5 weeks old, weighing 28-38 g at the beginning of the experiment. Animals were acclimatized to the test facility for at least 5 days after delivery and randomly housed in groups of 3-4 in macrolon cages on wood litter with free access to food and water.
Before transcorneal stimulation, a drop of tetracaine solution (2%) was applied on each eye of the mouse for local anesthesia. Between 1-10 minutes later, at the pre-treatment time specified for the test compound, the mice were administered a rectangular current (44 mA, rectangular pulse: 0.2 ms pulse width, 3 s duration, 6 Hz) via corneal electrodes connected to a constant current shock generator.
The number of seizures as reflected by forelimb clonus were recorded immediately after current administration. Forelimb clonus was scored as absent (0=no forelimb clonus), mild (1=clonus with one forelimb) and strong (2=clonus with both forelimbs).
[…] The experimenters were blinded to the treatment. The cages were randomly assigned to a treatment code, each designating one treatment group.
Compound I was administered intraperitoneally at 20 and 50 mg/kg, 30 minutes before the test, and at 100 and 200 mg/kg, 60 minutes before the test and were compared with the vehicle control (5% ethanol, 10% […], 85% physiological saline).
Valproate (300 mg/kg i.p.), administered 30 minutes before the test, was used as reference substance and was compared with the vehicle control (5% ethanol, 10% Kolliphor HS15, 85% physiological saline).
Test compound: Compound I dissolved in 5% ethanol, 10% Kolliphor HS15, 85% physiological saline.
Vehicle control: 5% ethanol, 10% Kolliphor HS15, 85% physiological saline.
Reference: Valproate (300 mg/kg), dissolved in 5% ethanol, 10% Kolliphor HS15, 85% physiological saline.
Data were assumed to be non-normally distributed based on validation data, therefore non-parametric tests were utilized. Quantitative data (scores) with the test substance were analyzed by comparing treated groups with the corresponding vehicle control using Kruskal-Wallis test with Dunn's multiple comparisons test when the Kruskal-Wallis Test was significant. Quantitative data with the reference substance was analysed using Mann-Whitney U test.

[1] = system: mouse model of generalised seizure (tonic hind limb extensor convulsions); experiment: Maximal electroshock seizure threshold (MEST) test in the mouse
Procedure: The efficacy of the novel resorcinol according to the compound of Formula I was tested in a mouse model of generalised seizure, the maximal electroshock seizure threshold (MEST) test.
(§1) In the MEST test the ability of a drug to alter the seizure threshold current required to induce hind limb tonic extensor convulsions is measured according to an “up and down” method of shock titration (Kimball et al., 1957). An increase in seizure threshold is indicative of anti-convulsant effect.
(§2) The ability of a test compound to alter the stimulus intensity, expressed as current (mA), required to induce the presence of tonic hind limb extensor convulsions, is assessed in the MEST.
(§3) All animals were weighed at the beginning of the study and randomly assigned to treatment groups based on a mean distribution of body weight across groups.
The first animal within a treatment group was given a shock at the expected or estimated CC50 current. For subsequent animals, the current was lowered or raised depending on the convulsions outcome from the preceding animal, in intervals of 5 mA.
(§4) Data generated from each treatment group were used to calculate the CC50±SEM values for the treatment group.
Vehicle: (5% ethanol, 5% Kolliphor® EL, 90% Saline) was prepared as follows: 2 mL of ethanol, 2 mL of Kolliphor® EL were warmed to 60° C., in 36 mL of saline (1:1:18).
The test compound, described herein as Compound I, is as shown as Formula I. Test compound was administered at 1, 5, 20, 50, 100 and 200 mg/kg (i.p.) in a 1:2:17 ethanol:solutol:0.9% saline formulation.
(§5) The data for each treatment group were recorded as the number of +'s and 0's at each current level employed and this information is then used to calculate the CC50 value (current required for 50% of the animals to show seizure behaviour)±standard error.
(§6) Test compound effects were also calculated as percentage change in CC50 from the vehicle control group.
(§7) Significant difference between drug-treated animals and controls were assessed according to Litchfield and Wilcoxon (1949).

[2] = system: mouse model of generalised seizure (tonic hind limb extensor convulsions); experiment: mini-MEST (maximal electroshock seizure threshold, minimal sample sizes) test in the mouse; settings: 50 mg/kg i.p., 30 min post dose
Procedure: The maximal electroshock seizure threshold (MEST) test is widely utilized preclinically to evaluate pro- or anti-convulsant properties of test compounds (Loscher et al., 1991).
as §1, §2, §3
The first animal within a treatment group was given a shock at the expected or estimated CC50 current. For subsequent animals, the current was lowered or raised depending on the convulsions outcome from the preceding animal in log scale intervals.
as §4
Vehicle: (5% ethanol, 10% solutol in 85% Saline) was prepared as follows: 1 mL of ethanol, 2 mL of solutol were warmed to 60° C., in 17 mL of saline (1:2:17).
The test compound, described herein as Compound I, is as shown as Formula I. Test compound was administered at 50 mg/kg (i.p.) in a 1:2:17 ethanol:solutol:0.9% saline formulation.
as §5, §6, §7

[3] = 20 mg/kg i.p., 30 minutes before the test
[4] = 50 mg/kg i.p., 30 minutes before the test
[5] = 100 mg/kg i.p., 60 minutes before the test
[6] = 200 mg/kg i.p., 60 minutes before the test
[7] = 20 mg/kg i.p., 30 min post dose
[8] = 50 mg/kg i.p., 30 min post dose
[9] = 100 mg/kg i.p., 60 min post dose
[10] = 200 mg/kg i.p., 60 min post dose

Question: How did the “Forelimb clonus, Compared with Vehicle B (i.p.) %” value (shortened to “Forelimb clonus … (i.p.) %”) (RjOrl: Swiss mice; [3]) turn out when `C=C(C)[C@@H]1CC(O)C(C)=C[C@H]1c1c(O)cc(Br)cc1O` (single isomer, unassigned) [Compound I] was run?
Answer: 0%

Question: And the “Forelimb clonus (mean ± s.e.m.)” value (RjOrl: Swiss mice; [3])?
Answer: 0.8 ± 0.1

Question: And the “Forelimb clonus … (i.p.) %” value (RjOrl: Swiss mice; [4])?
Answer: −38%

Question: And the “Forelimb clonus (mean ± s.e.m.)” value (RjOrl: Swiss mice; [4])?
Answer: 0.5 ± 0.1

Question: What about the “Slight sedation (mice affected)” value (RjOrl: Swiss mice; 100 mg/kg i.p.) of the same compound?
Answer: Two mice out of the 13

Question: What about the “Forelimb clonus … (i.p.) %” value (RjOrl: Swiss mice; [5]) of the same compound?
Answer: −88%

Question: What about the “Forelimb clonus (mean ± s.e.m.)” value (RjOrl: Swiss mice; [5]) of the same compound?
Answer: 0.1 ± 0.1

Question: And the “Tremor (mice affected)” value (RjOrl: Swiss mice; 200 mg/kg i.p.)?
Answer: Two mice out of the 14

Question: What about the “Sedation (mice affected)” value (RjOrl: Swiss mice; 200 mg/kg i.p., 14 mice) of the same compound?
Answer: all mice showed slight (12 mice) to moderate (2 mice) sedation

Question: And the “Forelimb clonus … (i.p.) %” value (RjOrl: Swiss mice; [6])?
Answer: −63%

Question: What about the “Forelimb clonus (mean ± s.e.m.)” value (RjOrl: Swiss mice; [6]) of the same compound?
Answer: 0.3 ± 0.1

Question: What about the “% change from vehicle (CC50)” value ([1]; 1 mg/kg i.p., 15 min post dose) of the same compound?
Answer: 32%

Question: And the “CC50 +/− SEM” value ([1]; 1 mg/kg i.p., 15 min post dose)?
Answer: 31.3 ± 1.5 mA

Question: And the “% change from vehicle (CC50)” value ([1]; 5 mg/kg i.p., 15 min post dose)?
Answer: 45%

Question: And the “CC50 +/− SEM” value ([1]; 5 mg/kg i.p., 15 min post dose)?
Answer: 34.2 ± 1.5 mA

Question: What about the “% change from vehicle (CC50)” value [1, 7] of the same compound?
Answer: 202%

Question: And the “CC50 +/− SEM” value [1, 7]?
Answer: 71.5 ± 1.0 mA

Question: What about the “% change from vehicle (CC50)” value [1, 8] of the same compound?
Answer: 650%

Question: And the “CC50 +/− SEM” value [1, 8]?
Answer: 177.5 ± 0.7 mA

Question: And the “% change from vehicle (CC50)” value [1, 9]?
Answer: 1157%

Question: What about the “CC50 +/− SEM” value [1, 9] of the same compound?
Answer: 297.5 ± 0.7 mA

Question: And the “% change from vehicle (CC50)” value [1, 10]?
Answer: >1168%

Question: What about the “CC50 +/− SEM” value [1, 10] of the same compound?
Answer: >300.0 mA

Question: What about the “CC50 +/− SEM” value [2] of the same compound?
Answer: >114 mA

Question: What about the “tonic hindlimb convulsions in treatment group” value ([2]; 6 animals) of the same compound?
Answer: did not have any convulsions
